Reference: US20260137711A1, “COMBINATION THERAPY FOR CANCER” (NATIONAL UNIVERSITY OF IRELAND, GALWAY, priority 2022, published 2026)

System: MCF10A EditR cells
Test: Pooled genome-wide CRISPR/Cas9 screen with XL413 (cell proliferation, sgRNA abundance, MAGeCK beta scores)
Assay type: cell-based, human
Conditions: for XL413 beta score: 1.25 μM XL413, day 0 to day 24; for Differential beta score (Treatment − Control): XL413-treated minus untreated
Protocol: Supplemental FIG. 1: CRISPR/Cas9 screen: Cell proliferation curves, summary of sgRNA coverage, and genes of interest identified (a-c) Proliferation curves of MCF10A EditR cells expressing sgRNAs from CRISPR library modules I, II and III in the absence (untreated) or presence of 1.25 μM XL413. Data is from three independent counts of each sample ±standard deviation (SD). (d) DNA extracted from samples of the CRISPR/Cas9 screen, which were harvested on day 0 and after 20 or 24 days of growth in the absence (untreated) or presence of 1.25 μM XL413, respectively, was analysed by next generation sequencing. Sequence data was mapped to a CELLECTA genome-wide sgRNA reference library using the MAGeCKFlute pipeline. (d) The table summarises the total and missing number of sgRNAs, the calculated % sgRNA coverage and the number of missing genes.
A genome-wide CRIPSR/Cas9 loss of function screen identifies genes that affect proliferation rate in response to a CDC7 inhibitor In order to identify genes that change the rate of proliferation when DNA synthesis is mildly limited by CDC7 inhibition, we performed a CRISPR/Cas9 genome-wide knockout screen as outlined in FIG. 1a. Briefly, MCF10A EditR cells that stably express Cas9 were transduced with a lentiviral-sgRNA library targeting approximately 19,000 coding genes and then were either untreated or treated with 1.25 μM of selective ATP competitive CDC7 inhibitor, XL413 (Koltun et al., 2012). […] Next generation sequencing was then used to determine sgRNA abundance at day 0, day 20 untreated and day 24 XL413 treated cells. […] CRISPR/Cas9-mediated loss of function of genes involved in supporting proliferation in untreated cells or in response to CDC7 inhibition is expected to result in a decreased relative abundance of the corresponding sgRNAs in the cell population. […] When the genes were ranked according to the magnitude of the effect, CDK8, a gene that expresses a component of the CDK8/CDK19-CCNC-MED12-MED 13 mediator complex kinase-module (Dannappel et al., 2019; Fant and Taatjes, 2019; Menzl et al., 2019), came out as the top hit (FIG. 1b and Table 1, ranked 19012 out of 19012 genes).
MCF10A EditR cells (120×10^6 per module) were transduced with individual modules (Modules I, II and III) in the presence of 5 µg/ml polybrene at a Multiplicity of Infection (MoI) of 0.4 achieving ˜600-fold guide representation. After 24 hours, transduced cells were harvested, replated and selected with puromycin ([…]) for 6 days. Puromycin resistant cells were harvested and a sample of ˜30×10^6 cells taken for analysis by next generation sequencing (NGS) at the start of the screen (day 0). The remaining puromycin resistant cells from each module were cultured independently from each other in untreated and XL413 treated ([…]) experimental branches. Throughout the screen cell proliferation and viability were determined by cell counting on a LunaII automated cell counter (Logos Biosystems) using trypan blue exclusion. Cells were cultured, harvested, reseeded and retreated every 4 days in order to maintain ˜600-fold guide representation. Finally at day 20 for the untreated branch and at day 24 for the XL413-treated branche, cells were harvested and a sample of ˜30×10^6 cells taken for analysis by NGS.
FASTQ files obtained by NGS were analysed using the MAGeCKFlute pipeline (Wang et al., 2019) as outlined below. MAGeCK was used to perform adaptor trimming, mapping of trimmed sgRNAs and associated sequencing reads to the CELLECTA sgRNA reference library, and a quality control assessment of the sequencing quality and screen data. Following quality control inspection, sgRNA read count data from the day 0 vs day 20 untreated and day 0 vs day 24 XL413-treated (1.25 μM) conditions were modelled using a negative-binomial distribution by MAGeCK-MLE to calculate a beta score for each targeted gene. Negative control sgRNAs in the CELLECTA library were used by MAGeCK-MLE to normalize the read counts between samples. […]

Compound: Cl.O=c1[nH]c([C@@H]2CCCN2)nc2c1oc1ccc(Cl)cc12 [XL413]
- cell proliferation over the course of the screen (1.25 μM XL413, cells expressing sgRNA library): only mildly suppressed
- XL413 beta score (gene CCNC targeted by sgRNAs): −1.0759
- Differential beta score (Treatment − Control) (gene CCNC targeted by sgRNAs): −0.3602
- XL413 beta score (gene CDK8 targeted by sgRNAs): −1.6094
- Differential beta score (Treatment − Control) (gene CDK8 targeted by sgRNAs): −1.4391
- XL413 beta score (gene CDK19 targeted by sgRNAs): −0.2393
- Differential beta score (Treatment − Control) (gene CDK19 targeted by sgRNAs): 0.0034
- XL413 beta score (gene MED12 targeted by sgRNAs): −0.8276
- Differential beta score (Treatment − Control) (gene MED12 targeted by sgRNAs): 0.0928
- XL413 beta score (gene MED13 targeted by sgRNAs): 0.0939
- Differential beta score (Treatment − Control) (gene MED13 targeted by sgRNAs): 0.0062
- XL413 beta score (gene RIF1 targeted by sgRNAs): −0.0162
- Differential beta score (Treatment − Control) (gene RIF1 targeted by sgRNAs): 0.7442
